Results: US6458026B1, “Integrin-targeting vectors having transfection activity” (ICH Productions Limited, priority 1997, dated 2002)
Where two headings read alike, the source gives them in different places.

Columns and labels:
integrins = details: cited from earlier work
[1] = test system: human lung fibroblasts (HFL-1 cells); test: Antisense transfection: thrombin-induced proliferation of HFL-1 cells; type: cell-based; details: thrombin-treated cells
Description: Thrombin stimulates proliferation of human lung fibroblasts. Thrombin-treated human lung fibroblasts (HFL-1 cells) proliferated 53% in response to thrombin. 24 hours before treatment with thrombin, HFL-1 cells were treated with an LID complex comprising [K]16-peptide 6, lipofectin and a 20-mer antisense oligonucleotide directed against the thrombin receptor PAR-1 in the optimal ratio and mixing order prepared as described in the Materials and Methods section and the Examples above. The antisense oligonucleotide-containing complex was in contact with the cells for 4 hours. 24 hours after the start of the treatment with the complex, treatment with thrombin was carried out.

Row | Substance | integrin specificity (integrins) | integrin specificity (integrins; listed as peptide 5) | proliferation in response to thrombin [1] [%]
1 | GACDCRGDCFCA [Peptide 5] | Peptide 5 (αv) | has high affinity for integrin αv but is not αv-specific | 
2 | GACRGDMFGCA [Peptide 1] | has affinity for α5 and αv integrins but is non-specific |  | 
3 | GACRRETAWACG [Peptide 6] | α5β1-specific |  | 
4 | thrombin |  |  | 53
